Measurements reported in a compilation of properties of binary mixtures (doi:10.1016/j.molliq.2015.01.031).

Experiment: xn = mol fraction of the nth substance listed
Settings: 101 kPa

CCCC[n+]1ccn(C)c1.F[B-](F)(F)F + CC(O)CO
x2 = 0
Settings | speed of sound [m/s]
303.15 K | 1552.9
318.15 K | 1518
323.15 K | 1506.6

OCCCO + CCCC[n+]1ccn(C)c1.F[B-](F)(F)F
speed of sound [m/s]
Settings | x1 = 0.1026 | x1 = 0.2072 | x1 = 0.3172 | x1 = 0.3943 | x1 = 0.503 | x1 = 0.6011 | x1 = 0.7009 | x1 = 0.8006 | x1 = 0.8979 | x1 = 1
298.15 K | 1564.2 | 1563.5 | 1565.2 | – | 1574.2 | 1580.8 | 1590 | – | 1612.8 | 1628.8
303.15 K | – | 1551.8 | 1553.4 | 1557.4 | 1562.4 | 1569 | 1578.2 | 1589.4 | 1601.1 | 1617.6
308.15 K | 1540.8 | 1539.9 | 1541.5 | 1545.5 | 1550.6 | 1557.2 | 1566.5 | 1577.8 | – | 1606.2
313.15 K | 1529.1 | 1528.2 | – | – | – | 1545.5 | 1554.8 | 1566.2 | 1578.1 | 1594.8
318.15 K | 1517.6 | 1516.6 | 1518.1 | 1522.1 | 1527.1 | – | – | 1554.6 | 1566.6 | 1583.5
323.15 K | 1506.2 | 1505.1 | 1506.5 | – | 1515.5 | 1522.2 | 1531.6 | 1543.1 | – | 1572.1

CCCC[n+]1ccn(C)c1.F[B-](F)(F)F + OCCCO
x2 = 0
Settings | speed of sound [m/s]
298.15 K | 1565.1
303.15 K | 1553.2
308.15 K | 1541.3
313.15 K | 1529.7
318.15 K | 1518.2
323.15 K | 1506.8

CC(O)CO (stereo unspecified) + CCCC[n+]1ccn(C)c1.F[B-](F)(F)F
speed of sound [m/s]
Settings | x1 = 0.1182 | x1 = 0.2003 | x1 = 0.3122 | x1 = 0.4189 | x1 = 0.5064 | x1 = 0.6165 | x1 = 0.695 | x1 = 0.797 | x1 = 0.8966 | x1 = 1
298.15 K | – | – | – | 1545.8 | 1541.1 | 1535.1 | 1530.5 | 1524.7 | 1518.5 | 1511
303.15 K | 1548.1 | 1544.1 | 1538.9 | – | 1529 | 1522.8 | – | 1511.8 | 1505.3 | 1497.2
308.15 K | – | 1532.3 | – | 1521.8 | 1516.9 | 1510.4 | 1505.3 | 1498.8 | 1491.8 | 1483.1
313.15 K | 1524.6 | 1520.6 | 1515.2 | 1509.8 | 1504.7 | – | 1492.6 | 1485.7 | – | 1469
318.15 K | 1513 | 1509 | – | 1497.9 | 1492.5 | 1485.5 | 1480 | 1472.7 | – | 1454.9
323.15 K | 1501.6 | 1497.4 | 1491.8 | 1486.1 | 1480.5 | – | 1467.3 | 1459.6 | 1451.4 | 1440.7
